Consider three molecules from patent publication US12209099B2, “Azetidobenzodiazepine dimers and conjugates comprising them for use in the treatment of cancer” (MEDIMMUNE LIMITED, priority 2019, dated 2025).

In the test the test system is carcinoma cell line NCI-N87. Nature of the test: Cytotoxicity assay of warheads (MTS, 7 days). Format: cell-based. The note with it: Homo sapiens, 168 h, NCI-N87, 7 days incubation, mean of three independent replicates. As for the experimental part:
The potency of the molecules were measured via in vitro cytotox assays in the carcinoma cell line NCI-N87.
Solid material was dissolved in DMSO to a 2 mM stock solution, from which eight serial dilutions were made at a 1:10 ratio in DMSO and stored at −20° C. until use.
Adherent NCI-N87 cells were washed with D-PBS and detached with Trypsin-EDTA, cell density and viability were then determined in duplicate by Trypan blue exclusion assay using an automated cell counter (LUNA-II™). Cell suspension was diluted to 1×10^5 cells/ml in growth media (RPMI 1640 with Glutamax+10% (v/v) HyClone™ Fetal Bovine Serum) and vortexed before dispensing 2 mL per well into sterile 3 mL polypropylene plates. Warhead dilutions were then dispensed into the appropriate wells at 10 μl/well and mixed by repeat pipetting. For control wells 10 μl of DMSO was dispensed onto 2 mL cell suspension, and thoroughly mixed. 100 μl of each sample was then aliquoted into 2 replicate wells of a sterile flat 96-well microplate and incubated in a 37° C. CO2-gassed (5%) incubator. At the end of the incubation period time (7 days), cell viability was measured by CellTiter 96 Aqueous One (MTS) assay, which was dispensed at 20 μl/well and incubated for 4 hours at 37° C., 5% CO2. Plates were then read on an EnVision Multi-label Plate Reader (Perkin Elmer) using absorbance at 490 nm.
Cell survival percentage was calculated from the mean absorbance of the 2 replicate wells for each sample, compared to the mean absorbance in the two control wells treated with DMSO only (100%). The IC50 was determined by fitting each data set to sigmoidal dose-response curves with a variable slope using the non-linear curve fit algorithm on the GraphPad Prism software (San Diego, CA).
All the experiments in this report were carried out and tested in three independent experiments. Data are reported as the mean of the three independent replicates.

`COc1cc2c(cc1OCCCOc1cc3c(cc1OC)C(=O)N1CC[C@H]1C=N3)N=C[C@@H]1CCN1C2=O` [Ex2A, (10aS,10a′S)-7,7′-(propane-1,3-diylbis(oxy))bis(6-methoxy-1,10a-dihydroazeto[1,2-a]benzo[e][1,4]diazepin-4(2H)-one)] registered an IC50 of 70.1 nM.
Turning to `COc1cc2c(cc1OCCCCCOc1cc3c(cc1OC)C(=O)N1CC[C@H]1C=N3)N=C[C@@H]1CCN1C2=O` [Ex1, (10aS,10a′S)-7,7′-(pentane-1,5-diylbis(oxy))bis(6-methoxy-1,10a-dihydroazeto[1,2-a]benzo[e][1,4]diazepin-4(2H)-one)], the IC50 was found to be 2.2 nM.
To `COc1cc2c(cc1OCc1cccc(COc3cc4c(cc3OC)C(=O)N3CC[C@H]3C=N4)c1)N=C[C@@H]1CCN1C2=O` [Ex2B, (10aS,10a′S)-7,7′-((1,3-phenylenebis(methylene))bis(oxy))bis(6-methoxy-1,10a-dihydroazeto[1,2-a]benzo[e][1,4]diazepin-4(2H)-one)] belongs 4.04 nM.

As a reminder, the IC50 is the concentration that inhibits the measured activity by half. A high value points to weaker potency.
